Consider one compound from EP0715850A1, “Use of proline and/or derivatives as an antihepatitis agent” (RESEARCH DEVELOPMENT CORPORATION OF JAPAN, priority 1994, dated 1996).

Read-outs that look alike come from different tables or passages of the source.

The subject of experiment [1] is rats suffering galactosamine induced fulminant hepatitis. The following applies: blood sampled 36 hours after galactosamine; Pre-Pro and Post-Pro groups, proline 2.0 g/kg oral. The method, then:
The effect of administration of proline on transamylase activity in blood of rats suffering galactosamine induced fulminant hepatitis was investigated.
Blood was sampled from each of the four groups of rats (GalN, Control, Pre-Pro, and Post-Pro) of Example 1, upon the lapse of 36 hours after administration of galactosamine, and activity of transamylase in blood (glutamic-oxaloacetic acid transamylase: GOT; glutamic-pyruvic acid transamylase: GPT) was measured in accordance with the conventional method.

Experiment [2] concerns LEC rat which spontaneously develops hepatitis, cirrhosis and hepatoma. Put plainly: death rate and jaundice of LEC rats that spontaneously develop hepatitis. Format: in vivo. The source says: An effect of proline was investigated by using LEC rat which spontaneously develops hepatitis, cirrhosis and hepatoma.
Weanlings of LEC rats (seven weeks of age: food deprived for one week before testing) were divided into 2 groups, and copper deficiency feed and normal feed were presented to the groups, respectively. The rats of 2 groups were further divided into 3 groups: group of free drinking of proline solution (0.2M of proline in distilled water); group of oral administration of proline solution (135-150 mg of proline/day); and group of free drinking of water. Death rate of 6 groups of rats were measured. A relationship between the amount of proline solution consumed by rats and the degree of jaundice of the rats was also measured.

The subject of experiment [3] is rats suffering galactosamine induced fulminant hepatitis. The following applies: ten days after galactosamine.
Experimental: Because of the similarity of pathological findings to those of human hepatitis and a large number of patients, experiments were carried out on the effect of administration of proline on the survival rate of rats suffering galactosamine induced fulminant hepatitis commonly used as a hepatitis model.
Fisher strain rats (male; eight weeks of age; body weight: 160 to 190 g) were divided into four groups each comprising nine rats. Rats of three groups were administered with 30% galactosamine hydrochloride-saline through intraperitoneal administration (1.4 g/kg body weight) to form fulminant hepatitis models (GalN), and only saline was administered to the remaining group to form a control group.
For 12 hours before and after administration of galactosamine, the rats were fasted, and from 12 hours prior to administration of galactosamine through six hours thereafter, the rats were caused to freely ingest 10% glucose aqueous solution.

For the compound `O=C(O)[C@@H]1CCCN1` [Proline, proline], the “increase in the concentration of GOT in blood” value in experiment [1] was “largely inhibited”. The “increase in the concentration of GPT in blood” value in experiment [1] was “largely inhibited”. In addition, the degree of jaundice entry in experiment [2] (LEC rats ingesting proline solution, Fig. 3) was “diminished the jaundice”. In addition, the Death rate in experiment [2] (copper deficiency feed, free drinking of proline solution (0.2M in distilled water)) is given as 0%; in experiment [2] (copper deficiency feed, oral administration of proline solution (135-150 mg of proline/day)), 0%; in experiment [2] (normal feed, free drinking of proline solution (0.2M in distilled water)) it was 85%; in experiment [2] (normal feed, oral administration of proline solution (135-150 mg of proline/day)), 57%. In addition, the survival rate is reported as 78% in experiment [3] (post-administration (Post-Pro) group: proline 2.0 g/kg oral at 6, 12 and 24 hours after galactosamine (1.4 g/kg i.p.), 7/9); 100% in experiment [3] (pre-administration (Pre-Pro) group: proline 2.0 g/kg oral one hour prior to and 12 and 24 hours after galactosamine (1.4 g/kg i.p.), 9/9).
